Measured values taken from US12152016B2, “Aryl hydrocarbon receptor modulators and uses thereof” (Beth Israel Deaconess Medical Center, Inc., priority 2018, dated 2024).

Columns and labels:
[1] = LC-MS/MS analysis of plasma after oral dosing of mice; type: in vivo, mouse; conditions: LC-MS/MS of plasma samples
[2] = Liver microsomal stability (LCMS/MS); type: in vitro ADME; conditions: in the presence of liver microsomes
[3] = Plasma stability (LCMS/MS); type: in vitro ADME; conditions: incubated in plasma
[4] = system: AHR-dependent transcription of the CYP1A1 gene; assay: CYP1A1 induction in mouse macrophages; type: cell-based
Protocol: Mouse macrophages were also used to test AHR-dependent transcription of the CYP1A1 gene in vivo. Finally, the activity of exemplary compounds of Formula (I) described herein was tested in the human […] cell line U937. The U937 cell line is derived from a patient with diffuse histiocytic lymphoma. Tables 2-4 summarize structure-activity relationship data collected for exemplary, non-limiting compounds of Formula (I) described herein.

COC(=O)c1cccc(C(=O)c2c[nH]c3ccccc23)n1 [Compound 10, methyl 6-(1H-indole-3-carbonyl)pyridine-2-carboxylate]
species found in plasma after oral dosing [1]: only revealed the presence of the much less active carboxylic acid derivative | liver microsomal stability [2]: highly unstable | plasma stability [3]: highly unstable | CYP1A1 induction (% of ITE ± SEM) ([4]; 50 nM): 143 ± 90 % of ITE | CYP1A1 induction (% of ITE ± SEM) ([4]; 5 μM): 88 ± 38 % of ITE
